From patent US20040235070A1, “Immune reactivity to expressed activated oncogenes for diagnosis and treatment of malignancy” (Washington Research Foundation, priority 1990, published 2004)

Key:
[1] = test system: bcr3-abl2 peptide-specific CD4^+ T cell clones; experiment: Proliferative assay of bcr3-abl2 peptide-specific CD4+ T cell clones ([3H] thymidine incorporation); assay type: cell-based, BALB/c mice; settings: for [^3H] Thymidine Incorporation (c.p.m.) after Stimulation / [^3H] Thymidine Incorporation (c.p.m.): 96-hour culture; for [^3H] Thymidine Incorporation (c.p.m.): Table 2; for [^3H] Thymidine Incorporation (c.p.m.) after Stimulation with bcr3-abl2 peptide (5 μg/ml): peptides of varying lengths 5 μg/ml, 96 hour culture, Table 4
Experimental: (§1) Mice (female BALB/c and C57BL/6 (B6), 6 to 8 weeks old; Jackson Laboratories, Bar Harbor, Me.) were inoculated twice at 2-week intervals by subcutaneous injection with Complete Freund's Adjuvant (Sigma Chemical Co., St. Louis, Mo.) alone or emulsified with bcr3-abl2 peptide (100 μg). Ten days after the final immunization, single cell suspensions of draining lymph nodes and spleens were prepared in medium consisting of 1:1 mixture of RPMI 1640 (Gibco Laboratories, Inc., Grand Island, N.Y.) and EHAA (Biofluids, Inc., Rockville, Md.) with 2.5×10^−5 M 2-ME, 200 U/ml penicillin, 200 U/ml streptomycin, 10 mM L-glutamine and 10% fetal calf serum. For proliferative assays, lymphocytes were cultured in 96-well plates at 2×10^5 cells per well with 4×10^5 irradiated syngeneic spleen cells (3,000 rad) and designated (total volume of 200 μl per well). Plates were incubated in a humidified atmosphere under 5% CO2 tension at 37° C. for 72 hours, and then pulsed for 18 hours with […] of [^3H]-thumidine per well. Proliferative responses of cloned T cells utilized 2×10^4 cells per well with 5×10^5 irradiated syngeneic spleen cells (3,000 rad) and designated peptide.
Lymphocytes from the draining lymph nodes of mice immunized with bcr3-abl2 peptide were cultured in 24-well culture plates at 4×10^6 cells per well with 2×10^6 irradiated syngeneic spleen cells and bcr3-abl2 peptide at 25 μg/ml (total volume 2 ml). The plates were cultured in a humidified atmosphere under 5% CO2 tension at 37° C. for 5 days then split 1:2. After 10 days, lymphocytes were restimulated at 1×10^6 lymphocytes per well in 24-well culture plates with 5×10^6 irradiated syngeneic spleen cells and peptide (25 μg/ml). Two days after the second in vitro stimulation, T cells were-plated at 0.5 cells per well in 96-well flat-bottom plates with 1×10^6 irradiated syngeneic spleen cells and rIL-2 (50 U/ml). Derived T cell clones were maintained by periodic stimulation with peptide (1 μg/ml) plus irradiated syngeneic spleen cells followed by expansion with rIL-2 (10 U/ml) every 2 weeks. T cell clones were stained with FITC-conjugated anti-Thy 1.2 (1%), or FITC-conjugated anti-Lyt2 (2%), or PE-conjugated anti-L3T4 (3%) mAbs (Becton Dickinson Immunocytochemistry Systems, Mountain View, Calif.) at 4° C. for 45 minutes.

[2] = test system: lymph node and splenic lymphocytes from immunized mice; experiment: Proliferation of lymph node and spleen lymphocytes from mice immunized with bcr3-abl2 peptide; assay type: cell-based; settings: BALB/c mice immunized with bcr3-abl2 12 mer peptide
Experimental: Ten days following immunization with peptide, draining lymph node cells (Panel A) and spleen cells (Panel B) were cultured alone or with bcr3-abl2 12 mer peptide, or bcr2-abl2 12 mer peptide, or ras-c12 12 mer peptide at 25 μg/ml, and assayed after 96 hours for proliferation by [^3H] thymidine uptake. The data represent the mean of triplicate determinations of the c.p.m.+S.D.
as §1, with “Proliferative responses of cloned T cells utilized 2×10^4 cells per well with 5×10^5 irradiated syngeneic spleen cells (3,000 rad) and designated peptide.” left out

With “G F K Q S S K A L Q R P (GFKQSSKALQRP) [bcr3-abl2 12 mer peptide, 12 amino acid peptide identical to the joining region of p210 bcr-abl (bcr exon 3 fused to c-abl exon 2)]” the “[^3H] Thymidine Incorporation (c.p.m.) after Stimulation” value ([1]; T cell clone 1D2, peptide 0.04 μg/ml) was 16,423 c.p.m, the “[^3H] Thymidine Incorporation (c.p.m.) after Stimulation” value ([1]; T cell clone 1D2, peptide 0.2 μg/ml) was 91,251 c.p.m and the “[^3H] Thymidine Incorporation (c.p.m.) after Stimulation” value ([1]; T cell clone 1D2, peptide 1 μg/ml) was 183,229 c.p.m. For the same sequence, the “[^3H] Thymidine Incorporation (c.p.m.)” value ([1]; T cell clone 1D2, peptide 5 μg/ml) was 274,701 c.p.m, the “[^3H] Thymidine Incorporation (c.p.m.) after Stimulation” value ([1]; T cell clone 1D2, peptide 5 μg/ml, Table 3) was 259,018 c.p.m and the “[^3H] Thymidine Incorporation (c.p.m.) after Stimulation” value ([1]; T cell clone 1D2, peptide 25 μg/ml) was 66,329 c.p.m. For the same sequence, the “[^3H] Thymidine Incorporation (c.p.m.) after Stimulation with bcr3-abl2 peptide (5 μg/ml)” value ([1]; T cell clone 1D2) was 120,049 c.p.m, the “[^3H] Thymidine Incorporation (c.p.m.) after Stimulation” value ([1]; T cell clone 2B12, peptide 0.04 μg/ml) was 4,132 c.p.m and the “[^3H] Thymidine Incorporation (c.p.m.) after Stimulation” value ([1]; T cell clone 2B12, peptide 0.2 μg/ml) was 71,651 c.p.m. For the same sequence, the “[^3H] Thymidine Incorporation (c.p.m.) after Stimulation” value ([1]; T cell clone 2B12, peptide 1 μg/ml) was 213,089 c.p.m, the “[^3H] Thymidine Incorporation (c.p.m.)” value ([1]; T cell clone 2B12, peptide 5 μg/ml) was 109,319 c.p.m and the “[^3H] Thymidine Incorporation (c.p.m.) after Stimulation” value ([1]; T cell clone 2B12, peptide 5 μg/ml, Table 3) was 229,010 c.p.m. The “[^3H] Thymidine Incorporation (c.p.m.) after Stimulation” value ([1]; T cell clone 2B12, peptide 25 μg/ml) was 132,620 c.p.m, the “[^3H] Thymidine Incorporation (c.p.m.) after Stimulation” value ([1]; T cell clone 2D4, peptide 0.04 μg/ml) was 12,599 c.p.m and the “[^3H] Thymidine Incorporation (c.p.m.) after Stimulation” value ([1]; T cell clone 2D4, peptide 0.2 μg/ml) was 150,711 c.p.m. The “[^3H] Thymidine Incorporation (c.p.m.) after Stimulation” value ([1]; T cell clone 2D4, peptide 1 μg/ml) was 256,606 c.p.m, the “[^3H] Thymidine Incorporation (c.p.m.)” value ([1]; T cell clone 2D4, peptide 5 μg/ml) was 262,799 c.p.m and the “[^3H] Thymidine Incorporation (c.p.m.) after Stimulation” value ([1]; T cell clone 2D4, peptide 5 μg/ml, Table 3) was 182,266 c.p.m. For the same sequence, the “[^3H] Thymidine Incorporation (c.p.m.) after Stimulation” value ([1]; T cell clone 2D4, peptide 25 μg/ml) was 42,623 c.p.m, the “[^3H] Thymidine Incorporation (c.p.m.) after Stimulation” value ([1]; T cell clone 2E3, peptide 0.04 μg/ml) was 1,475 c.p.m and the “[^3H] Thymidine Incorporation (c.p.m.) after Stimulation” value ([1]; T cell clone 2E3, peptide 0.2 μg/ml) was 93,921 c.p.m. For the same sequence, the “[^3H] Thymidine Incorporation (c.p.m.) after Stimulation” value ([1]; T cell clone 2E3, peptide 1 μg/ml) was 273,273 c.p.m, the “[^3H] Thymidine Incorporation (c.p.m.)” value ([1]; T cell clone 2E3, peptide 5 μg/ml) was 293,219 c.p.m and the “[^3H] Thymidine Incorporation (c.p.m.) after Stimulation” value ([1]; T cell clone 2E3, peptide 5 μg/ml, Table 3) was 407,729 c.p.m. The “[^3H] Thymidine Incorporation (c.p.m.) after Stimulation” value ([1]; T cell clone 2E3, peptide 25 μg/ml) was 358,253 c.p.m, the “[^3H] Thymidine Incorporation (c.p.m.) after Stimulation” value ([1]; T cell clone 2E10, peptide 0.04 μg/ml) was 26,195 c.p.m and the “[^3H] Thymidine Incorporation (c.p.m.) after Stimulation” value ([1]; T cell clone 2E10, peptide 0.2 μg/ml) was 235,103 c.p.m. The “[^3H] Thymidine Incorporation (c.p.m.) after Stimulation” value ([1]; T cell clone 2E10, peptide 1 μg/ml) was 333,056 c.p.m, the “[^3H] Thymidine Incorporation (c.p.m.)” value ([1]; T cell clone 2E10, peptide 5 μg/ml) was 242,633 c.p.m and the “[^3H] Thymidine Incorporation (c.p.m.) after Stimulation” value ([1]; T cell clone 2E10, peptide 5 μg/ml, Table 3) was 312,783 c.p.m. The “[^3H] Thymidine Incorporation (c.p.m.) after Stimulation” value ([1]; T cell clone 2E10, peptide 25 μg/ml) was 131,643 c.p.m, the “[^3H] Thymidine Incorporation (c.p.m.) after Stimulation with bcr3-abl2 peptide (5 μg/ml)” value ([1]; T cell clone 2E10) was 96,525 c.p.m and the “[^3H] Thymidine Incorporation (c.p.m.) after Stimulation” value ([1]; T cell clone 3B7, peptide 0.04 μg/ml) was 60,957 c.p.m. The “[^3H] Thymidine Incorporation (c.p.m.) after Stimulation” value ([1]; T cell clone 3B7, peptide 0.2 μg/ml) was 56,967 c.p.m, the “[^3H] Thymidine Incorporation (c.p.m.) after Stimulation” value ([1]; T cell clone 3B7, peptide 1 μg/ml) was 111,212 c.p.m and the “[^3H] Thymidine Incorporation (c.p.m.)” value ([1]; T cell clone 3B7, peptide 5 μg/ml) was 64,935 c.p.m. The “[^3H] Thymidine Incorporation (c.p.m.) after Stimulation” value ([1]; T cell clone 3B7, peptide 5 μg/ml, Table 3) was 149,640 c.p.m, the “[^3H] Thymidine Incorporation (c.p.m.) after Stimulation” value ([1]; T cell clone 3B7, peptide 25 μg/ml) was 53,441 c.p.m and the “[^3H] Thymidine Incorporation (c.p.m.) after Stimulation” value ([1]; T cell clone 3E11, peptide 0.04 μg/ml) was 91,240 c.p.m. The “[^3H] Thymidine Incorporation (c.p.m.) after Stimulation” value ([1]; T cell clone 3E11, peptide 0.2 μg/ml) was 135,985 c.p.m, the “[^3H] Thymidine Incorporation (c.p.m.) after Stimulation” value ([1]; T cell clone 3E11, peptide 1 μg/ml) was 189,843 c.p.m and the “[^3H] Thymidine Incorporation (c.p.m.)” value ([1]; T cell clone 3E11, peptide 5 μg/ml) was 263,425 c.p.m. For the same sequence, the “[^3H] Thymidine Incorporation (c.p.m.) after Stimulation” value ([1]; T cell clone 3E11, peptide 5 μg/ml, Table 3) was 130,633 c.p.m, the “[^3H] Thymidine Incorporation (c.p.m.) after Stimulation” value ([1]; T cell clone 3E11, peptide 25 μg/ml) was 40,755 c.p.m and the “[^3H] Thymidine Incorporation (c.p.m.) after Stimulation” value ([1]; T cell clone 3G2, peptide 0.04 μg/ml) was 9,440 c.p.m. For the same sequence, the “[^3H] Thymidine Incorporation (c.p.m.) after Stimulation” value ([1]; T cell clone 3G2, peptide 0.2 μg/ml) was 49,602 c.p.m, the “[^3H] Thymidine Incorporation (c.p.m.) after Stimulation” value ([1]; T cell clone 3G2, peptide 1 μg/ml) was 150,799 c.p.m and the “[^3H] Thymidine Incorporation (c.p.m.)” value ([1]; T cell clone 3G2, peptide 5 μg/ml) was 30,846 c.p.m. For the same sequence, the “[^3H] Thymidine Incorporation (c.p.m.) after Stimulation” value ([1]; T cell clone 3G2, peptide 5 μg/ml, Table 3) was 168,387 c.p.m, the “[^3H] Thymidine Incorporation (c.p.m.) after Stimulation” value ([1]; T cell clone 3G2, peptide 25 μg/ml) was 132,024 c.p.m and the “[^3H] Thymidine Incorporation (c.p.m.) after Stimulation” value ([1]; T cell clone 3G3, peptide 0.04 μg/ml) was 11,510 c.p.m. For the same sequence, the “[^3H] Thymidine Incorporation (c.p.m.) after Stimulation” value ([1]; T cell clone 3G3, peptide 0.2 μg/ml) was 18,403 c.p.m, the “[^3H] Thymidine Incorporation (c.p.m.) after Stimulation” value ([1]; T cell clone 3G3, peptide 1 μg/ml) was 93,219 c.p.m and the “[^3H] Thymidine Incorporation (c.p.m.)” value ([1]; T cell clone 3G3, peptide 5 μg/ml) was 61,521 c.p.m. For the same sequence, the “[^3H] Thymidine Incorporation (c.p.m.) after Stimulation” value ([1]; T cell clone 3G3, peptide 5 μg/ml, Table 3) was 143,670 c.p.m, the “[^3H] Thymidine Incorporation (c.p.m.) after Stimulation” value ([1]; T cell clone 3G3, peptide 25 μg/ml) was 101,280 c.p.m and the “response of bcr3-abl2 peptide-specific T cell clones (in words)” value ([1]; proliferative assay with irradiated syngeneic APC) was “responded specifically”. For the same sequence, the “lowest concentration to which clones responded vigorously” value ([1]; some clones, lowest concentration tested) was 0.04 µg/mL and the “proliferation in vitro of lymph node and splenic lymphocytes” value [2] was “proliferated in vitro”.
